Measured values as given in article PMC7345083, “Vancomycin-Lipopeptide Conjugates with High Antimicrobial Activity on Vancomycin-Resistant Enterococci” (Pharmaceuticals, 2020).
≈ marks a conversion by molar mass, not a printed value.

System: Enterococcus faecium UL602570 (vanA, clinical isolate)
Type: cell-based
Conditions: UL602570 (vanA, clinical isolate, 18 h)
Protocol: The minimum inhibitory concentration (MIC) was determined by microdilution following the EUCAST and CLSI guidelines via the broth microdilution assay on a 96-well plate. Substances were dissolved in saline solution (0.9%) at a concentration equimolar to 1.28 mg/mL vancomycin. With an increasing hydrophobicity, some substances had to be pre-dissolved in DMSO. The final concentration of DMSO remained below 1.5% and was compared to the DMSO control (no antimicrobial effect was observed up to the highest concentration tested (10%)). All substances were serially diluted on the 96-well plate using Mueller-Hinton-Broth II (cation adjusted). Vancomycin was always used as a control. For bacterial loading, an overnight culture of the referring strain was taken and adjusted to a turbidity corresponding to 10^8 cfu/mL. The bacterial suspension was further diluted to load a bacterial number of 10^6 cfu/mL on the 96-well plate and incubate it for 18 h at 35 ± 1 °C, as described before. MIC was defined as the lowest concentration without visible growth.

SMILES	MIC median [µg/mL]	MIC range [µg/mL]
CCCCCCCC(=O)N[C@@H](CCCNC(=N)N)C(=O)N[C@@H](CCCNC(=N)N)C(=O)N[C@@H](CCCNC(=N)N)C(=O)N[C@@H](CSC1CC(=O)N(CC2CCC(C(=O)NCCNC(=O)[C@H]3NC(=O)[C@H]4NC(=O)[C@H](NC(=O)[C@@H]5NC(=O)[C@H](CC(N)=O)NC(=O)[C@H](NC(=O)[C@@H](CC(C)C)NC)[C@H](O)c6ccc(c(Cl)c6)Oc6cc5cc(c6O[C@@H]5O[C@H](CO)[C@@H](O)[C@H](O)[C@H]5O[C@H]5C[C@](C)(N)[C@H](O)[C@H](C)O5)Oc5ccc(cc5Cl)[C@H]4O)c4ccc(O)c(c4)-c4c(O)cc(O)cc43)CC2)C1=O)C(N)=O (stereo partly shown) [VC-R3C-C8]	9.54 (≈ 3.93 µM)	9.54 to 19.08
CCCCCCCCCC(=O)N[C@@H](CCCNC(=N)N)C(=O)N[C@@H](CCCNC(=N)N)C(=O)N[C@@H](CCCNC(=N)N)C(=O)N[C@@H](CSC1CC(=O)N(CC2CCC(C(=O)NCCNC(=O)[C@H]3NC(=O)[C@H]4NC(=O)[C@H](NC(=O)[C@@H]5NC(=O)[C@H](CC(N)=O)NC(=O)[C@H](NC(=O)[C@@H](CC(C)C)NC)[C@H](O)c6ccc(c(Cl)c6)Oc6cc5cc(c6O[C@@H]5O[C@H](CO)[C@@H](O)[C@H](O)[C@H]5O[C@H]5C[C@](C)(N)[C@H](O)[C@H](C)O5)Oc5ccc(cc5Cl)[C@H]4O)c4ccc(O)c(c4)-c4c(O)cc(O)cc43)CC2)C1=O)C(N)=O (stereo partly shown) [VC-R3C-C10]	4.77 (≈ 1.94 µM)	4.77 to 9.53
CCCCCCCCCCCCCC(=O)N[C@@H](CCCNC(=N)N)C(=O)N[C@@H](CCCNC(=N)N)C(=O)N[C@@H](CCCNC(=N)N)C(=O)N[C@@H](CSC1CC(=O)N(CC2CCC(C(=O)NCCNC(=O)[C@H]3NC(=O)[C@H]4NC(=O)[C@H](NC(=O)[C@@H]5NC(=O)[C@H](CC(N)=O)NC(=O)[C@H](NC(=O)[C@@H](CC(C)C)NC)[C@H](O)c6ccc(c(Cl)c6)Oc6cc5cc(c6O[C@@H]5O[C@H](CO)[C@@H](O)[C@H](O)[C@H]5O[C@H]5C[C@](C)(N)[C@H](O)[C@H](C)O5)Oc5ccc(cc5Cl)[C@H]4O)c4ccc(O)c(c4)-c4c(O)cc(O)cc43)CC2)C1=O)C(N)=O (stereo partly shown) [VC-R3C-C14]	2.45 (≈ 0.976 µM)	2.45 to 4.91
CCCCCCCCCCCCCCCC(=O)N[C@@H](CCCNC(=N)N)C(=O)N[C@@H](CCCNC(=N)N)C(=O)N[C@@H](CCCNC(=N)N)C(=O)N[C@@H](CSC1CC(=O)N(CC2CCC(C(=O)NCCNC(=O)[C@H]3NC(=O)[C@H]4NC(=O)[C@H](NC(=O)[C@@H]5NC(=O)[C@H](CC(N)=O)NC(=O)[C@H](NC(=O)[C@@H](CC(C)C)NC)[C@H](O)c6ccc(c(Cl)c6)Oc6cc5cc(c6O[C@@H]5O[C@H](CO)[C@@H](O)[C@H](O)[C@H]5O[C@H]5C[C@](C)(N)[C@H](O)[C@H](C)O5)Oc5ccc(cc5Cl)[C@H]4O)c4ccc(O)c(c4)-c4c(O)cc(O)cc43)CC2)C1=O)C(N)=O (stereo partly shown) [VC-R3C-C16]	5.00 (≈ 1.97 µM)	5.00 to 10.00
CCCCCCCCCCCCCCCCCC(=O)N[C@@H](CCCNC(=N)N)C(=O)N[C@@H](CCCNC(=N)N)C(=O)N[C@@H](CCCNC(=N)N)C(=O)N[C@@H](CSC1CC(=O)N(CC2CCC(C(=O)NCCNC(=O)[C@H]3NC(=O)[C@H]4NC(=O)[C@H](NC(=O)[C@@H]5NC(=O)[C@H](CC(N)=O)NC(=O)[C@H](NC(=O)[C@@H](CC(C)C)NC)[C@H](O)c6ccc(c(Cl)c6)Oc6cc5cc(c6O[C@@H]5O[C@H](CO)[C@@H](O)[C@H](O)[C@H]5O[C@H]5C[C@](C)(N)[C@H](O)[C@H](C)O5)Oc5ccc(cc5Cl)[C@H]4O)c4ccc(O)c(c4)-c4c(O)cc(O)cc43)CC2)C1=O)C(N)=O (stereo partly shown) [VC-R3C-C18]	10.17 (≈ 3.96 µM)	5.08 to 10.17
CCCCCC(=O)N[C@@H](CCCNC(=N)N)C(=O)N[C@@H](CCCNC(=N)N)C(=O)N[C@@H](CCCNC(=N)N)C(=O)N[C@@H](CSC1CC(=O)N(CC2CCC(C(=O)N(C)[C@H](CC(C)C)C(=O)N[C@H]3C(=O)N[C@@H](CC(N)=O)C(=O)N[C@H]4C(=O)N[C@H]5C(=O)N[C@H](C(=O)N[C@H](C(=O)O)c6cc(O)cc(O)c6-c6cc5ccc6O)[C@H](O)c5ccc(c(Cl)c5)Oc5cc4cc(c5O[C@@H]4O[C@H](CO)[C@@H](O)[C@H](O)[C@H]4O[C@H]4C[C@](C)(N)[C@H](O)[C@H](C)O4)Oc4ccc(cc4Cl)[C@H]3O)CC2)C1=O)C(N)=O (stereo partly shown) [VN-R3C-C6]	72.00 (≈ 30.6 µM)	36.00 to 72.00
CCCCCCCCCC(=O)N[C@@H](CCCNC(=N)N)C(=O)N[C@@H](CCCNC(=N)N)C(=O)N[C@@H](CCCNC(=N)N)C(=O)N[C@@H](CSC1CC(=O)N(CC2CCC(C(=O)N(C)[C@H](CC(C)C)C(=O)N[C@H]3C(=O)N[C@@H](CC(N)=O)C(=O)N[C@H]4C(=O)N[C@H]5C(=O)N[C@H](C(=O)N[C@H](C(=O)O)c6cc(O)cc(O)c6-c6cc5ccc6O)[C@H](O)c5ccc(c(Cl)c5)Oc5cc4cc(c5O[C@@H]4O[C@H](CO)[C@@H](O)[C@H](O)[C@H]4O[C@H]4C[C@](C)(N)[C@H](O)[C@H](C)O4)Oc4ccc(cc4Cl)[C@H]3O)CC2)C1=O)C(N)=O (stereo partly shown) [VN-R3C-C10]	4.66 (≈ 1.93 µM)	4.66 to 9.31

Results, then the molecule that gave them:

MIC median [µg/mL]	MIC range [µg/mL]	SMILES
106.00 (≈ 44.2 µM)	–	CCCCCC(=O)N[C@@H](CCCNC(=N)N)C(=O)N[C@@H](CCCNC(=N)N)C(=O)N[C@@H](CCCNC(=N)N)C(=O)N[C@@H](CSC1CC(=O)N(CC2CCC(C(=O)NCCNC(=O)[C@H]3NC(=O)[C@H]4NC(=O)[C@H](NC(=O)[C@@H]5NC(=O)[C@H](CC(N)=O)NC(=O)[C@H](NC(=O)[C@@H](CC(C)C)NC)[C@H](O)c6ccc(c(Cl)c6)Oc6cc5cc(c6O[C@@H]5O[C@H](CO)[C@@H](O)[C@H](O)[C@H]5O[C@H]5C[C@](C)(N)[C@H](O)[C@H](C)O5)Oc5ccc(cc5Cl)[C@H]4O)c4ccc(O)c(c4)-c4c(O)cc(O)cc43)CC2)C1=O)C(N)=O (stereo partly shown) [VC-R3C-C6]
34.75 (≈ 15.1 µM)	17.38 to 34.75	CN[C@H](CC(C)C)C(=O)N[C@H]1C(=O)N[C@@H](CC(N)=O)C(=O)N[C@H]2C(=O)N[C@H]3C(=O)N[C@H](C(=O)N[C@H](C(=O)NCCNC(=O)C4CCC(CN5C(=O)CC(SC[C@H](NC(=O)[C@H](CCCNC(=N)N)NC(=O)[C@H](CCCNC(=N)N)NC(=O)[C@@H](N)CCCNC(=N)N)C(N)=O)C5=O)CC4)c4cc(O)cc(O)c4-c4cc3ccc4O)[C@H](O)c3ccc(c(Cl)c3)Oc3cc2cc(c3O[C@@H]2O[C@H](CO)[C@@H](O)[C@H](O)[C@H]2O[C@H]2C[C@](C)(N)[C@H](O)[C@H](C)O2)Oc2ccc(cc2Cl)[C@H]1O (stereo partly shown) [VC-R3C]
18.31 (≈ 7.68 µM)	9.16 to 18.31	CCCCCCCC(=O)N[C@@H](CCCNC(=N)N)C(=O)N[C@@H](CCCNC(=N)N)C(=O)N[C@@H](CCCNC(=N)N)C(=O)N[C@@H](CSC1CC(=O)N(CC2CCC(C(=O)N(C)[C@H](CC(C)C)C(=O)N[C@H]3C(=O)N[C@@H](CC(N)=O)C(=O)N[C@H]4C(=O)N[C@H]5C(=O)N[C@H](C(=O)N[C@H](C(=O)O)c6cc(O)cc(O)c6-c6cc5ccc6O)[C@H](O)c5ccc(c(Cl)c5)Oc5cc4cc(c5O[C@@H]4O[C@H](CO)[C@@H](O)[C@H](O)[C@H]4O[C@H]4C[C@](C)(N)[C@H](O)[C@H](C)O4)Oc4ccc(cc4Cl)[C@H]3O)CC2)C1=O)C(N)=O (stereo partly shown) [VN-R3C-C8]
